Test results taken from publication PMC4065032, “Biochemical Characterization of Quinolinic Acid Phosphoribosyltransferase from Mycobacterium tuberculosis H37Rv and Inhibition of Its Activity by Pyrazinamide” (PLoS ONE, 2014).

Tests used:
hQAPRTase = settings: cited from earlier work
SEC = molecular target: the molecule itself; assay: SEC

Row | Molecule | Km (hQAPRTase) [µM] | kcat (hQAPRTase; recalculated from Vmax) [s⁻¹] | stoichiometry N (SEC)
1 | O=C(O)c1cccnc1C(=O)O [QA, 2,3-pyridinedicarboxylic acid] | 22 | 0.04 | –
2 | Quinolinic acid phosphoribosyltransferase from Mycobacterium tuberculosis H37Rv (recombinant, C-terminal 6xHis) (enzyme, also called MtQAPRTase; QAPRTase; not shown: His6, C-terminal, kept) MGLSDWELAAARAAIARGLDEDLRYGPDVTTLATVPASATTTASLVTREAGVVAGLDVALLTLNEVLGTNGYRVLDRVEDGARVPPGEALMTLEAQTRGLLTAERTMLNLVGHLSGIATATAAWVDAVRGTKAKIRDTRKTLPGLRALQKYAVRTGGGVNHRLGLGDAALIKDNHVAAAGSVVDALRAVRNAAPDLPCEVEVDSLEQLDAVLPEKPELILLDNFAVWQTQTAVQRRDSRAPTVMLESSGGLSLQTAATYAETGVDYLAVGALTHSVRVLDIGLDM | – | – | 2
